Assay results: patent US11958842B2, “Substituted phenazines and methods of treating cancer and bacterial diseases” (Adjutec Pharma AS, priority 2016, dated 2024)
Converted amounts (≈) assume the structure as drawn. Read-outs that look alike come from different tables or passages of the source.

What was measured:
[1] = Parallel artificial membrane permeability assay (PAMPA); settings: for LogPeff: PAMPA, 50 μM in PBS, room temperature, five hours
Experimental: The Corning Gentest™ pre-Coated parallel artificial membrane permeability assay PAMPA Plate System was from Cording Discovery Labware (Bedford, USA). The compounds were tested in room temperature at 50 μM using PBS as buffer. A total of 300 μl of the compound solution was added to each well of the donor plate, and 200 μl of PBS was added to the receiver filter plate. After incubation for five hours, 50 μl of the donor or acceptor well were injected into a reversed phase HPLC column (Kromasil 100-5 C18 150-4.6 mm, Akzo Nobel, Sweden) connected to a Merck-Hitachi LaChrome HPLC-system (VWR, WestChester, USA) with a L-7455 diode array detector. Mobile phase A was 0.05% aqueous TFA, and mobile phase B was acetonitrile. The flow rate was 1.6 ml/min and compounds eluted between 1 and 4.5 minutes was eluted during a 6.5 min gradient from 90:10% mobile phase A:B to 0:100% mobile phase A:B. The ratio of the compound concentrations in the donor and acceptor compartment was calculated after integration of the peaks at 285 nm. Peff was calculated as described in [Bennion B J, Be N A, McNerney M W, Lao V, Carlson E M, Valdez C A, et al. Predicting a Drug's Membrane Permeability: A Computational Model Validated With in Vitro Permeability Assay Data. The journal of physical chemistry B. 2017; 121(20):5228-37.]. Membrane permeability were classified by the range defined by Bennion et al., allowing for us to divide the compounds into four groups, compounds with high permeability (LogPeff>−5.33), intermediate permeability (LogPeff>−5.66 and <−5.33), low permeability (LogPeff>−6.14 and <−5.66) impermeable (LogPeff<−6.14).

[2] = tested on: Molm13 cells; test: Anti-AML activity, WST-1 viability (Example 72); format: cell-based; settings: Homo sapiens
Experimental: Dry powder of analogs were dissolved in DMSO. IPC-18 rat AML cells (Lacaze, N. et al. Leuk. Res. 1983, 7, 145.) were cultured in DMEM medium (Sigma-Aldrich, St. Louis, Mo., USA) supplemented with 10% horse serum (Invitrogen, Carlsbad, Calif., USA), and antibiotics (50 U/mL of penicillin and 0.05 mg/mL streptomycin). Molm13 (Matsuo, Y. et al. Leukemia 1997, 11, 1469.) cells were cultured in RPMI supplemented with antibiotics (50 U/mL of penicillin and 0.05 mg/mL streptomycin) and 10% fetal bovine serum (FBS, Invitrogen, Carlsbad, Calif.) and kept in exponential growth before the experiments. Dilution series of iodinin analogs were added to medium and cell suspension added to reach a final cell concentration of 150 000 cells/ml in 0.1 mL in a 96 well tissue culture plate. […] The cells were incubated with the iodinin analogs for 22 h before WST-1 was added according to the manufacturers protocol, and the cells incubated further in 2 h. Mitochondrial conversion of WST-1 to its colored metabolite was measured by a plate reader at 450 nm, with 620 nm as the reference wavelength. The cells were next fixed by adding 4% buffered formaldehyde (PBS, pH 7.4, supplemented with 0.01 mg/mL Hoechst 33342 for nuclear visualization) to the cell suspension at 1:1 (v/v) ratio (final concentration of formaldehyde:[…]). The cells' nuclear and surface morphology were examined microscopically and results compared with the WST-1 viability assay. The results given in Table I are based on WST-1 data.

[3] = tested on: human acute myeloid leukemia cell line MOLM-13; test: Cytotoxicity, WST-1 and nuclear morphology (Example 73); format: cell-based
Procedure, shortened: (§1)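 MOLM-13 (RPMI/FBS), NRK and H9c2 (DMEM/10% FBS) cells under 2% or 20% O2 at 37° C were exposed to analogues for 24 h (≤1% DMSO). Viability was read by WST-1, and cell death by Hoechst 33342 nuclear morphology; EC50 came from four-parameter regression.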

[4] = tested on: normal rat kidney epithelial (NRK) cells; test: as above; format: cell-based
Procedure, shortened: as §1

[5] = tested on: rat cardiomyoblast (H9c2) cells; test: as above; format: cell-based; settings: read-out: EC50 (μM) H9c2 19% O2
Procedure, shortened: as §1

[6] = tested on: methicillin-resistant S. aureus MRSA A4-37; test: Microbroth dilution MIC; format: cell-based; settings: compound alone
Experimental: (§2) Day 1: • Plate bacterial strain(s) on appropriate media: • Gram-negative bacteria with ESBLs or carbapenemases: green agar plates with 100 mg/L ampicillin • Gram-negative bacteria without β-lactamases: green agar plates • Gram-positive bacteria (Staphylococci and Enterococci): blood agar plates • Incubate o.n. at 37° C.
(§3) Prepare the Bacterial Inoculum: • Prepare a 0.5 McFarland suspension of bacteria in 0.85% NaCl. (Should be used within 15 min of preparation). • Dilute the 0.5 McFarland suspension 1:100 into MH broth.
(§4) Check the inoculum by diluting the prepared bacterial suspension 1:100 (10 μl bacterial suspension+990 μl 0.85% NaCl). Plate 10 μl of the dilution on MH agar plates (×2). Incubate o.n. at 37° C., count the colonies and calculate the final CFU/ml inoculum in the plate by multiplying the average number of colonies with 10000 and divide by 2. The final inoculum should be between 3-7×10^5 CFU/ml. • Add 50 μl of the prepared bacterial suspension to each well in the microtiter plate except negative growth control.
(§5) Preparation of Compounds/Antibiotics • Calculate the desired concentration-range and volume of the compounds/antibiotics in the assay. For antibiotics this will depend on the MIC to meropenem of the bacterial strains to be tested. Dilute the stock solution in MH broth. Make subsequent 2-fold dilutions in MH broth of the desired concentrations if a concentration range is to be tested (remember the extra dilution factor in the assay plate). Always include extra volume for pipetting. Take into consideration stock solutions that are made in buffers that have an effect on bacterial growth (e.g. DMSO).
(§6) This experimental design was used for the results in Tables 4 and 5 below. In Table 4, inhibitor concentration dependency on the MIC of meropenem was studied.

[7] = tested on: vancomycin-resistant E. faecium vanA A1-22; test: Microbroth dilution MIC; format: cell-based; settings: compound alone
Experimental: as §2, §3, §4, §5, §6

[8] = tested on: hepG2; test: Cytotoxicity (Example 73, Table 2); format: cell-based; settings: Homo sapiens, read-out: EC50 (μM) hepG2
[9] = Homo sapiens, MOLM-13, 2% O2, 24 hours of incubation, read-out: EC50 (μM) MOLM-13 2% O2
[10] = Homo sapiens, MOLM-13, 19% O2, 24 hours of incubation, read-out: EC50 (μM) MOLM-13 19% O2
[11] = Rattus norvegicus, 2% O2, 24 hours of incubation, read-out: EC50 (μM) NRK 2% O2
[12] = Rattus norvegicus, 19% O2, 24 hours of incubation, read-out: EC50 (μM) NRK 19% O2
[13] = Rattus norvegicus, H9c2, 19% O2, 24 hours of incubation
[14] = MOLM-13, 2% O2, 24 hours of incubation, read-out: EC50 (μM) MOLM-13 2% O2
[15] = MOLM-13, 19% O2, 24 hours of incubation, read-out: EC50 (μM) MOLM-13 19% O2
[16] = Rattus norvegicus, 24 h, read-out: EC50 (μM) NRK 2% O2, NRK, 2% O2, 24 hours of incubation
[17] = Rattus norvegicus, 24 h, read-out: EC50 (μM) NRK 19% O2, NRK, 19% O2, 24 hours of incubation
[18] = H9c2, 19% O2, 24 hours of incubation
[19] = MOLM-13, 24 h, read-out: Molm 13 IC50 20% O2

| Structure (SMILES) | LogPeff [1] | MIC A4-37 S. aureus MRSA [6] [µg/mL] | MIC A1-22 E. faecium vanA [7] [µg/mL] | EC50 ([8]; HepG2, 24 h) [µM] | EC50 [3, 14] [µM] | EC50 [3, 15] [µM] | EC50 [4, 16] [µM] | EC50 [4, 17] [µM] | EC50 [5, 18] [µM] | further results |
| --- | --- | --- | --- | --- | --- | --- | --- | --- | --- | --- |
| CC(C)(C)OC(=O)COc1cccc2c1[n+]([O-])c1cccc(O)c1[n+]2[O-] [Example 5b, 1-(2-(tert-butoxy)-2-oxoethoxy)-6-hydroxyphenazine 5,10-dioxide] | −5.33 | < 0.5 | 8 (≈ 22.3 µM) |  |  |  |  |  |  | IC50 ([2]; Molm 13 cells, 2% O2, 24 h of incubation, WST-1, read-out: Molm 13 IC50 2% O2): 1.65 µM; IC50 ([2]; Molm 13 cells, 20% O2, 24 h of incubation, WST-1, read-out: Molm 13 IC50 20% O2): 1.77 µM; EC50 [3, 9]: 2.4 ± 0.16 µM; EC50 [3, 10]: 2.9 ± 0.34 µM; EC50 [4, 11]: 53 µM; EC50 [4, 12]: 53 ± 1.5 µM; EC50 [5, 13]: 42 ± 5.8 µM |
| CCOC(=O)COc1cccc2c1[n+]([O-])c1cc(Br)c(Br)cc1[n+]2[O-] [Example 6d, 7,8-dibromo-1-(2-ethoxy-2-oxoethoxy)phenazine 5,10-dioxide] |  | 16 (≈ 33.9 µM) | 8 (≈ 16.9 µM) |  |  |  |  |  |  | EC50 ([8]; hepG2, 24 hours of incubation): 65 µM; EC50 [3, 9]: 1.6 ± 0.09 µM; EC50 [3, 10]: 2.4 ± 0.03 µM; EC50 [4, 11]: 9.7 ± 2.4 µM; EC50 [4, 12]: 10 ± 0.7 µM; EC50 [5, 13]: 3.3 ± 0.5 µM |
| COc1cccc2c1[n+]([O-])c1cccc(OC(=O)N3CCN(C)CC3)c1[n+]2[O-] [Example 8b, 1-methoxy-6-((4-methylpiperazine-1-carbonyl)oxy)phenazine 5,10-dioxide] | −5.77 |  |  | 90 | 0.98 ± 0.08 | 1 ± 0.06 | 39 ± 4.2 | 26 ± 2.1 | 26 ± 0.9 |  |
| CN1CCN(C(=O)Oc2cccc3c2[n+]([O-])c2ccccc2[n+]3[O-])CC1 [Example 8c, 1-((4-methylpiperazine-1-carbonyl)oxy)phenazine 5,10-dioxide] |  | < 4 | 8 (≈ 22.6 µM) |  | 1.9 ± 0.05 | 1.5 ± 0.18 | 37 ± 1.9 | 25 ± 0.2 | 36 ± 11 | IC50 [2, 19]: 0.35 µM |
| CN1CCN(C(=O)Oc2cccc3c2[n+]([O-])c2cc4ccccc4cc2[n+]3[O-])CC1 [Example 8e, 1-((4-methylpiperazine-1-carbonyl)oxy)benzo[b]phenazine 5,12-dioxide] | −5.38 |  |  | 45 |  |  |  |  |  | Permeability ([1]; PAMPA class by ranges of Bennion et al.): Intermediate/high; EC50 ([3]; Homo sapiens, MOLM-13, 24 h, read-out: EC50 (μM) MOLM-13 2% O2): 0.32 ± 0.06 µM; EC50 ([3]; Homo sapiens, MOLM-13, 24 h, read-out: EC50 (μM) MOLM-13 19% O2): 0.34 ± 0.04 µM; EC50 ([4]; read-out: EC50 (μM) NRK 2% O2, 2% O2, 24 hours of incubation): 15 ± 1.8 µM; EC50 ([4]; read-out: EC50 (μM) NRK 19% O2, 19% O2, 24 hours of incubation): 10 ± 0.9 µM; EC50 ([5]; Rattus norvegicus, H9c2, 24 h): 3.2 ± 0.1 µM |
| CCN(CC)C(=O)Oc1cccc2c1[n+]([O-])c1cccc(O)c1[n+]2[O-] [Example 8i, 1-((diethylcarbamoyl)oxy)-6-hydroxyphenazine 5,10-dioxide] |  | < 4 | 8 (≈ 23.3 µM) |  |  |  |  |  |  | IC50 ([2]; MOLM-13, 24 h, read-out: Molm 13 IC50 2% O2): 0.74 µM; IC50 [2, 19]: 0.76 µM |
| COc1cccc2c1[n+]([O-])c1cccc(OC(=O)N3CCCC3)c1[n+]2[O-] [Example 8l, 1-methoxy-6-((pyrrolidine-1-carbonyl)oxy)phenazine 5,10-dioxide] |  | < 4 | 63 (≈ 177 µM) | 110 | 1.8 ± 0.17 | 2 ± 0.11 | 35 ± 1.5 | 32 ± 2.5 | 35 ± 3.3 |  |
| COc1cccc2c1[n+]([O-])c1cccc(OC(=O)N(C)C)c1[n+]2[O-] [Example 8m, 1-((dimethylcarbamoyl)oxy)-6-methoxyphenazine 5,10-dioxide] |  | < 4 | 63 (≈ 191 µM) |  | 1.7 ± 0.09 | 1.9 ± 0.07 | 29 ± 0.7 | 22 ± 1.7 | 35 ± 1.8 |  |
| COc1cccc2c1[n+]([O-])c1ccccc1[n+]2[O-] [Example 18, 1-methoxyphenazine 5,10-dioxide] |  | < 2 | 32 (≈ 132 µM) |  |  |  |  |  |  |  |
